Assay results taken from US20250171457A1, “NITROGEN-CONTAINING HETEROCYCLIC COMPOUND HAVING NRF2 ACTIVATION EFFECT” (CHUGAI SEIYAKU KABUSHIKI KAISHA, priority 2022, published 2025).

These compounds were tested on Nrf2 transcriptional activity (pARE-Luc reporter) in HepG2 cells (assay: In vitro Nrf2 transcriptional activity measurement by ARE-dependent reporter assay in HepG2 cell). Conditions: Homo sapiens; HepG2 cells transfected with pARE-Luc, 4 hours at 37° C.; luciferase activity of Example 1-54 or Example 17-23 at 3.75 μM defined as 100%.
Type: cell-based, human
How it was run: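 HepG2 cells transfected with pGL4.37 (pARE-Luc), replated onto compound and incubated 4 h at 37° C; luciferase read by Bright-Glo luminescence. Response normalized to 100% set by a reference compound at 3.75 μM; EC50 from dose-response curve.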

SMILES	EC50 [nM]
COCCOc1cc(Cl)c(C(=O)N2COc3c(cccc3-c3cc(N4CCOCC4)c(C(=O)O)cc3F)C2)cc1OC [Compound 4-55, 4-[3-[2-Chloro-5-methoxy-4-(2-methoxyethoxy)benzoyl]-2,4-dihydro-1,3-benzoxazin-8-yl]-5-fluoro-2-morpholin-4-ylbenzoic acid]	2
COC1CC2(C1)CN(c1cc(Cl)c(C(=O)N3COc4c(cccc4-c4cc(N5CC6CCC(C5)O6)c(C(=O)O)cc4F)C3)c(Cl)c1)C2 [Compound 4-56, 4-[3-[2,6-Dichloro-4-(6-methoxy-2-azaspiro[3.3]heptan-2-yl)benzoyl]-2,4-dihydro-1,3-benzoxazin-8-yl]-5-fluoro-2-(8-oxa-3-azabicyclo[3.2.1]octan-3-yl)benzoic acid]	1.9
CC1(N2CCN(c3cc(Cl)c(C(=O)N4COc5c(cccc5-c5cc(N6CCOCC6)c(C(=O)O)cc5F)C4)c(Cl)c3)CC2)COC1 [Compound 4-57, 4-[3-[2,6-Dichloro-4-[4-(3-methyloxetan-3-yl)piperazin-1-yl]benzoyl]-2,4-dihydro-1,3-benzoxazin-8-yl]-5-fluoro-2-morpholin-4-ylbenzoic acid]	4.8
O=C(O)c1cc(F)c(-c2cccc3c2OCN(C(=O)c2c(Cl)cc(N4CC(N5CCOCC5)C4)cc2Cl)C3)cc1N1C2CCC1COC2 [Compound 4-58, 4-[3-[2,6-Dichloro-4-(3-morpholin-4-ylazetidin-1-yl)benzoyl]-2,4-dihydro-1,3-benzoxazin-8-yl]-5-fluoro-2-(3-oxa-8-azabicyclo[3.2.1]octan-8-yl)benzoic acid]	5.2
O=C(O)c1cc(F)c(-c2cccc3c2OCN(C(=O)c2c(Cl)cc(N4CCN(C5COC5)CC4)cc2Cl)C3)cc1N1C2CCC1COC2 [Compound 4-59, 4-[3-[2,6-Dichloro-4-[4-(oxetan-3-yl)piperazin-1-yl]benzoyl]-2,4-dihydro-1,3-benzoxazin-8-yl]-5-fluoro-2-(3-oxa-8-azabicyclo[3.2.1]octan-8-yl)benzoic acid]	12
CN1CCN(c2cc(Cl)c(C(=O)N3COc4c(cccc4-c4cc(N5C6CCC5COC6)c(C(=O)O)cc4F)C3)c(Cl)c2)CC1 [Compound 4-60, 4-[3-[2,6-Dichloro-4-(4-methylpiperazin-1-yl)benzoyl]-2,4-dihydro-1,3-benzoxazin-8-yl]-5-fluoro-2-(3-oxa-8-azabicyclo[3.2.1]octan-8-yl)benzoic acid]	7.5
COC1COC2(CN(c3cc(Cl)c(C(=O)N4COc5c(cccc5-c5cc(N6C7CCC6COC7)c(C(=O)O)cc5F)C4)c(Cl)c3)C2)OC1 [Compound 5-3, 4-[3-[2,6-Dichloro-4-(7-methoxy-5,9-dioxa-2-azaspiro[3.5]nonan-2-yl)benzoyl]-2,4-dihydro-1,3-benzoxazin-8-yl]-5-fluoro-2-(3-oxa-8-azabicyclo[3.2.1]octan-8-yl)benzoic acid]	9.5
O=C(O)c1cc(F)c(-c2cccc3c2OCN(C(=O)c2c(Cl)cc(N4CC5(C4)OCCO5)cc2Cl)C3)cc1N1C2CCC1COC2 [Compound 5-4, 4-[3-[2,6-Dichloro-4-(5,8-dioxa-2-azaspiro[3.4]octan-2-yl)benzoyl]-2,4-dihydro-1,3-benzoxazin-8-yl]-5-fluoro-2-(3-oxa-8-azabicyclo[3.2.1]octan-8-yl)benzoic acid]	2.4
O=C(O)c1cc(F)c(-c2cccc3c2OCN(C(=O)c2c(Cl)cc(N4CC5(C4)OCC4(CC4)CO5)cc2Cl)C3)cc1N1C2CCC1COC2 [Compound 5-5, 4-[3-[2,6-Dichloro-4-(5,10-dioxa-8-azaspiro[2.2.36.23]undecan-8-yl)benzoyl]-2,4-dihydro-1,3-benzoxazin-8-yl]-5-fluoro-2-(3-oxa-8-azabicyclo[3.2.1]octan-8-yl)benzoic acid]	1
O=C(O)c1cc(F)c(-c2cccc3c2OCN(C(=O)c2c(Cl)cc(N4CC5(C4)OCCCCO5)cc2Cl)C3)cc1N1C2CCC1COC2 [Compound 5-6, 4-[3-[2,6-Dichloro-4-(5,10-dioxa-2-azaspiro[3.6]decan-2-yl)benzoyl]-2,4-dihydro-1,3-benzoxazin-8-yl]-5-fluoro-2-(3-oxa-8-azabicyclo[3.2.1]octan-8-yl)benzoic acid]	2.3
O=C(O)c1cc(F)c(-c2cccc3c2OCN(C(=O)c2c(Cl)cc(N4CC5(C4)OCC4(CCC4)CO5)cc2Cl)C3)cc1N1C2CCC1COC2 [Compound 5-8, 4-[3-[2,6-Dichloro-4-(6,11-dioxa-9-azadispiro[3.2.37.24]dodecan-9-yl)benzoyl]-2,4-dihydro-1,3-benzoxazin-8-yl]-5-fluoro-2-(3-oxa-8-azabicyclo[3.2.1]octan-8-yl)benzoic acid]	2
COC1(OC)CC2(CN(c3cc(Cl)c(C(=O)N4COc5c(cccc5-c5cc(N6C7CCC6COC7)c(C(=O)O)cc5F)C4)c(Cl)c3)C2)C1 [Compound 5-11, 4-[3-[2,6-Dichloro-4-(6,6-dimethoxy-2-azaspiro[3.3]heptan-2-yl)benzoyl]-2,4-dihydro-1,3-benzoxazin-8-yl]-5-fluoro-2-(3-oxa-8-azabicyclo[3.2.1]octan-8-yl)benzoic acid]	3.4
COC1(OC)CN(c2cc(Cl)c(C(=O)N3COc4c(cccc4-c4cc(N5C6CCC5COC6)c(C(=O)O)cc4F)C3)c(Cl)c2)[C@@H]1C [Compound 5-12, 4-[3-[2,6-Dichloro-4-[(2R)-3,3-dimethoxy-2-methylazetidin-1-yl]benzoyl]-2,4-dihydro-1,3-benzoxazin-8-yl]-5-fluoro-2-(3-oxa-8-azabicyclo[3.2.1]octan-8-yl)benzoic acid]	2.1
COC1CN(C2CN(c3cc(Cl)c(C(=O)N4COc5c(cccc5-c5cc(N6C7CCC6COC7)c(C(=O)O)cc5F)C4)c(Cl)c3)C2)C1 [Compound 5-13, 4-[3-[2,6-Dichloro-4-[3-(3-methoxyazetidin-1-yl)azetidin-1-yl]benzoyl]-2,4-dihydro-1,3-benzoxazin-8-yl]-5-fluoro-2-(3-oxa-8-azabicyclo[3.2.1]octan-8-yl)benzoic acid]	2.7
C[C@H]1COCCN1C1CN(c2cc(Cl)c(C(=O)N3COc4c(cccc4-c4cc(N5C6CCC5COC6)c(C(=O)O)cc4F)C3)c(Cl)c2)C1 [Compound 5-14, 4-[3-[2,6-Dichloro-4-[3-[(3S)-3-methylmorpholin-4-yl]azetidin-1-yl]benzoyl]-2,4-dihydro-1,3-benzoxazin-8-yl]-5-fluoro-2-(3-oxa-8-azabicyclo[3.2.1]octan-8-yl)benzoic acid]	2.9
C[C@@H]1COCCN1C1CN(c2cc(Cl)c(C(=O)N3COc4c(cccc4-c4cc(N5C6CCC5COC6)c(C(=O)O)cc4F)C3)c(Cl)c2)C1 [Compound 5-15, 4-[3-[2,6-Dichloro-4-[3-[(3R)-3-methylmorpholin-4-yl]azetidin-1-yl]benzoyl]-2,4-dihydro-1,3-benzoxazin-8-yl]-5-fluoro-2-(3-oxa-8-azabicyclo[3.2.1]octan-8-yl)benzoic acid]	3.1
COCC1(OC)CN(c2cc(Cl)c(C(=O)N3COc4c(cccc4-c4cc(N5C6CCC5COC6)c(C(=O)O)cc4F)C3)c(Cl)c2)C1 [Compound 6-1, 4-[3-[2,6-Dichloro-4-[3-methoxy-3-(methoxymethyl)azetidin-1-yl]benzoyl]-2,4-dihydro-1,3-benzoxazin-8-yl]-5-fluoro-2-(3-oxa-8-azabicyclo[3.2.1]octan-8-yl)benzoic acid]	2.1
COC1(C(F)(F)F)CN(c2cc(Cl)c(C(=O)N3COc4c(cccc4-c4cc(N5C6CCC5COC6)c(C(=O)O)cc4F)C3)c(Cl)c2)C1 [Compound 6-2, 4-[3-[2,6-Dichloro-4-[3-methoxy-3-(trifluoromethyl)azetidin-1-yl]benzoyl]-2,4-dihydro-1,3-benzoxazin-8-yl]-5-fluoro-2-(3-oxa-8-azabicyclo[3.2.1]octan-8-yl)benzoic acid]	2.8
O=C(O)c1cc(F)c(-c2cccc3c2OCN(C(=O)c2c(Cl)cc(N4CC(OCC(F)(F)F)C4)cc2Cl)C3)cc1N1C2CCC1COC2 [Compound 6-3, 4-[3-[2,6-Dichloro-4-[3-(2,2,2-trifluoroethoxy)azetidin-1-yl]benzoyl]-2,4-dihydro-1,3-benzoxazin-8-yl]-5-fluoro-2-(3-oxa-8-azabicyclo[3.2.1]octan-8-yl)benzoic acid]	5.7
COCC1(F)CN(c2cc(Cl)c(C(=O)N3COc4c(cccc4-c4cc(N5C6CCC5COC6)c(C(=O)O)cc4F)C3)c(Cl)c2)C1 [Compound 6-4, 4-[3-[2,6-Dichloro-4-[3-fluoro-3-(methoxymethyl)azetidin-1-yl]benzoyl]-2,4-dihydro-1,3-benzoxazin-8-yl]-5-fluoro-2-(3-oxa-8-azabicyclo[3.2.1]octan-8-yl)benzoic acid]	2
CCOC1CN(c2cc(Cl)c(C(=O)N3COc4c(cccc4-c4cc(N5C6CCC5COC6)c(C(=O)O)cc4F)C3)c(Cl)c2)C1 [Compound 6-5, 4-[3-[2,6-Dichloro-4-(3-ethoxyazetidin-1-yl)benzoyl]-2,4-dihydro-1,3-benzoxazin-8-yl]-5-fluoro-2-(3-oxa-8-azabicyclo[3.2.1]octan-8-yl)benzoic acid]	10
CC(C)OC1CN(c2cc(Cl)c(C(=O)N3COc4c(cccc4-c4cc(N5C6CCC5COC6)c(C(=O)O)cc4F)C3)c(Cl)c2)C1 [Compound 6-6, 4-[3-[2,6-Dichloro-4-(3-propan-2-yloxy-azetidin-1-yl)benzoyl]-2,4-dihydro-1,3-benzoxazin-8-yl]-5-fluoro-2-(3-oxa-8-azabicyclo[3.2.1]octan-8-yl)benzoic acid]	12
O=C(O)c1cc(F)c(-c2cccc3c2OCN(C(=O)c2c(Cl)cc(N4CC(OC5COC5)C4)cc2Cl)C3)cc1N1C2CCC1COC2 [Compound 6-7, 4-[3-[2,6-Dichloro-4-[3-(oxetan-3-yloxy)azetidin-1-yl]benzoyl]-2,4-dihydro-1,3-benzoxazin-8-yl]-5-fluoro-2-(3-oxa-8-azabicyclo[3.2.1]octan-8-yl)benzoic acid]	5.7
